Laboratory results: ChEMBL document CHEMBL1135347, “Spirocyclic NK(1) antagonists II: [4.5]-spiroethers” (Bioorg Med Chem Lett, 2002)
Blank lines part the entries; values can stand above or below the molecule they belong to.

Experiments:
Gerbillinae [1] = test: Ability to inhibit the foot tapping in gerbil immediately following central infusion of GR-73632 (agonist), 5 min after intravenous administration of compound; assay type: functional; conditions: read-out: ID50 (the source's name)
Substance-P receptor = Substance-P receptor (Homo sapiens, UniProt P25103); test: Displacement of [125I]-labeled substance P from the cloned human Tachykinin receptor 1 expressed in CHO cells; assay type: cell-based
Chain of Substance-P receptor (P25103 whole entry): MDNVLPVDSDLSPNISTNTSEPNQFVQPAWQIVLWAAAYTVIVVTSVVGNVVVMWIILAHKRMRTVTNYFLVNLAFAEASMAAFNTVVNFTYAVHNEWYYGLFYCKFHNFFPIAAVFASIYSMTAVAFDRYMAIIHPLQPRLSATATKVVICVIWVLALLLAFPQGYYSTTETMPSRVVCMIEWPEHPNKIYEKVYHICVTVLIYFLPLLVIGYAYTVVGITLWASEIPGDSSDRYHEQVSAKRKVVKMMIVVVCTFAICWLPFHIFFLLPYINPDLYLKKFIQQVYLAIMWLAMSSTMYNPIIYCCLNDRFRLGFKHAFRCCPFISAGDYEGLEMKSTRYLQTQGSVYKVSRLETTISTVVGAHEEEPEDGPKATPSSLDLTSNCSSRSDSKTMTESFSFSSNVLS

[2] = Half-life in rat; assay type: ADME, organism-based; conditions: in vivo
[3] = Half-life in Dog; assay type: ADME, organism-based, Canis lupus familiaris; conditions: in vivo
[4] = Bioavailability in dog; assay type: ADME, organism-based, Canis lupus familiaris; conditions: in vivo
Mustela putorius furo [5] = test: Compound was tested for inhibition of emetic response in ferret by administering intravenously following emetogen challenge after 3 min (iv); assay type: functional
Mustela putorius furo [6] = test: Compound was tested for inhibition of emetic response in ferret by administering perorally following emetogen challenge after 60 min (po); assay type: functional
[7] = Bioavailability in rat; assay type: ADME, organism-based; conditions: in vivo
Gerbillinae [8] = test: Ability to inhibit the foot tapping in gerbil immediately following central infusion of GR-73632 (agonist), 5 min after intravenous administration of compound (1 mg/kg); assay type: functional

SMILES: COc1ccc(OC(F)(F)F)cc1[C@H]1COC2(CCCN[C@H]2c2ccccc2)C1 (stereo not given in full)
ED50 (Gerbillinae [1]): 0.3 mg/kg
ID90 (Mustela putorius furo [5]): 1 mg/kg
ID90 (Mustela putorius furo [6]): 3 mg/kg
IC50 (Substance-P receptor): 0.3 nM

SMILES: c1ccc([C@H]2COC3(CCCN[C@H]3c3ccccc3)C2)cc1 (stereo not given in full)
IC50 (Substance-P receptor): 133 nM

SMILES: COc1ccc(OC(F)(F)F)cc1[C@H]1COC2(CCCN(Cc3nc[nH]n3)C2c2ccccc2)C1 (stereo not given in full)
Inhibition (Gerbillinae [8]): 45%
IC50 (Substance-P receptor): 0.89 nM

SMILES: COc1ccccc1[C@H]1COC2(CCCNC2c2ccccc2)C1 (stereo not given in full)
IC50 (Substance-P receptor): 6.5 nM

SMILES: COc1ccc(-n2nnnc2C(F)(F)F)cc1[C@H]1COC2(CCCN(Cc3n[nH]c(O)n3)C2c2ccccc2)C1 (stereo not given in full)
Inhibition (Gerbillinae [8]): 6%
IC50 (Substance-P receptor): 0.1 nM

Continued, in another order:

IC50 (Substance-P receptor): 0.35 nM
SMILES: COc1ccc(OC(F)(F)F)cc1C1=CC2(CCCNC2c2ccccc2)OC1 (stereo not given)
ED50 (Gerbillinae [1]): 0.2 mg/kg

IC50 (Substance-P receptor): 0.11 nM
SMILES: COc1ccc(-n2nnnc2C(F)(F)F)cc1[C@H]1COC2(CCCN(Cc3c[nH]cn3)C2c2ccccc2)C1 (stereo not given in full)
ED50 (Gerbillinae [1]): 0.5 mg/kg

half-life [2]: 1.7 h
half-life [3]: 2.7 h
bioavailability [4]: 79%
bioavailability [7]: 16%
IC50 (Substance-P receptor): 0.11 nM
SMILES: COc1ccc(-n2nnnc2C(F)(F)F)cc1[C@H]1COC2(CCCNC2c2ccccc2)C1 (stereo not given in full)
ED50 (Gerbillinae [1]): 0.1 mg/kg
ID90 (Mustela putorius furo [5]): 0.2 mg/kg
ID90 (Mustela putorius furo [6]): 1 mg/kg

IC50 (Substance-P receptor): 49 nM
SMILES: COc1ccccc1C1=CC2(CCCNC2c2ccccc2)OC1 (stereo not given)

IC50 (Substance-P receptor): 0.08 nM
SMILES: COc1ccc(-n2nnnc2C(F)(F)F)cc1C1=CC2(CCCN[C@H]2c2ccccc2)OC1 (stereo not given in full)
ED50 (Gerbillinae [1]): 0.1 mg/kg
